Results on five molecules are retold here after ChEMBL document CHEMBL5154750 (Bioorg Med Chem, 2022).

For test [1], the system named is HCT-116. The test is described as follows: Cytotoxicity against human HCT-116 cells assessed as cell viability at 10 uM relative to control. The test is classed as functional. The following applies: read-out: Activity.
Test [2] relates to HCT-116. The test is described as follows: Cytotoxicity against human HCT-116 cells assessed as cell viability at 1 uM relative to control. The test is classed as functional. The following applies: read-out: Activity.
The subject of test [3] is HL-60. The test is described as follows: Cytotoxicity against human HL-60 cells assessed as cell viability at 10 uM relative to control. The test is classed as functional. The following applies: read-out: Activity.
Test [4] concerns HL-60. The test is described as follows: Cytotoxicity against human HL-60 cells assessed as cell viability at 1 uM relative to control. The test is classed as functional. Particulars: read-out: Activity.
Test [5] deals with HCT-116. The test is described as follows: Cytotoxicity against human HCT-116 cells assessed as reduction in cell viability. The test is classed as functional, cell-based.
For test [6], the system named is HL-60. The test is described as follows: Cytotoxicity against human HL-60 cells assessed as reduction in cell viability. The test is classed as functional, cell-based.
In test [7] the test system is HCT-116. The test is described as follows: Growth inhibition of human HCT-116 cells at 1 uM relative to control. The test is classed as functional. On the set-up: scale not given: the % may be the effect or the level left.
The mark [8] stands for this setting: Homo sapiens, HL-60, read-out: IC50.

A word on the IC50: it is the concentration that inhibits the measured activity by half. On to `O=C1C=C2C(I)=C[C@@H]3C[C@]2(CN3Cc2ccccc2)O1`, for which the viability at 10 µM with HCT-116 [1] stood at 1%; in the test with HL-60 [3], 0%. The viability at 1 µM with HCT-116 [2] turned out to be 5%; in the test on HL-60 [4], 4%. Also, the values for the IC50 in the test with HCT-116 [5] and in the test with HL-60 [6] (setting [8]) were 60 nM and 350 nM, respectively. The molecule further had an Activity in the test with HCT-116 [7] of 80.9%.
On to `O=C1C=C2C=C[C@@H]3C[C@]2(CN3Cc2ccccc2)O1`, for which the viability at 10 µM in the test on HCT-116 [1] came out at 86%; in the test on HL-60 [3], 3%. The figures for the viability at 1 µM with HCT-116 [2] and with HL-60 [4] were 100% and 11%, respectively. Moreover, the IC50 in the test with HL-60 [6] (setting [8]) is 100 nM.
As to `CC(C)CN1C[C@]23C[C@H]1C=CC2=CC(=O)O3`, the viability at 10 µM in the test with HCT-116 [1] was 78%; with HL-60 [3], 1%. The viability at 1 µM was 83% with HCT-116 [2] and 15% with HL-60 [4].
Take `COc1cccc2c1C(=O)c1c(O)c3c(c(O)c1C2=O)C[C@@](O)(C(=O)CO)C[C@@H]3O[C@H]1C[C@H](N)[C@H](O)[C@H](C)O1` [DOXORUBICIN]: the IC50 was 10 nM with HCT-116 [5] and 90 nM in the test with HL-60 [6] (hl-60).
Take `O=C1C=C2C=C[C@@H]3C[C@@]2(O1)[C@H]1CCCCN31` [SECURININE]: the viability at 10 µM in the test with HCT-116 [1] was found to be 13%; in the test with HL-60 [3] it was 0.4%. The viability at 1 µM in the test with HCT-116 [2] turned out to be 98%; in the test with HL-60 [4], 8%. Besides, the figures for the IC50 in the test on HCT-116 [5] and with HL-60 [6] (setting [8]) were 8600 nM and 100 nM, respectively.
